Experimental data from ChEMBL document CHEMBL6153027, “Recent report on indoles as a privileged anti-viral scaffold in drug discovery” (Eur J Med Chem, 2025).
≈ marks a conversion by molar mass, not a printed value.

Tests used:
SARS-CoV-2 [1] = format: functional, organism-based; conditions: Severe acute respiratory syndrome coronavirus 2, Wuhan-Hu-1, Vero C1008
SARS-CoV-2 [2] = format: functional, organism-based, Vero E6; conditions: Severe acute respiratory syndrome coronavirus 2, Vero C1008
Sindbis virus = assay: Antiviral activity against Sindbis virus infected in African green monkey Vero cells assessed as reduction in virus induced cytopathic effect; format: functional, organism-based
[3] = system: Human immunodeficiency virus 1; assay: Antiviral activity against wild type HIV-1 NL4-3 infected in human MT4 cells assessed as reduction in viral replication; format: functional, organism-based; conditions: Human immunodeficiency virus 1, NL4-3, MT4
[4] = system: Respiratory syncytial virus; assay: Antiviral activity against RSV-A infected in human A549 cells at 0.01 MOI assessed as inhibition of virus induced cytopathic effect […] by MTT assay; format: functional, organism-based
SARS-CoV-2 [5] = format: functional, organism-based, Vero E6; conditions: Severe acute respiratory syndrome coronavirus 2, Vero C1008, 48 h
[6] = system: Venezuelan equine encephalitis virus; assay: Antiviral activity against VEEV TC-83 infected in human U-87 MG cells assessed as reduction in viral replication; format: functional, organism-based; conditions: TC-83, U-87 MG
Tobacco mosaic virus = assay: Antiviral activity against Tobacco mosaic virus; format: functional, organism-based
[7] = Inhibition of Zika virus NS5 RNA dependent RNA polymerase
[8] = Cytotoxicity against African green monkey Vero cells assessed as reduction in cell viability measured after 72 hrs by MTT assay; format: toxicity, cell-based; conditions: chlorocebus sabaeus
[9] = Inhibition of Influenza A virus H5N1 neuraminidase
[10] = molecular target: T1, Human immunodeficiency virus type 1 integrase (Human immunodeficiency virus 1, UniProt Q7ZJM1); assay: Inhibition of recombinant HIV-1 integrase by strand transfer activity
SARS-CoV-2 [11] = format: functional, organism-based, Vero E6; conditions: Severe acute respiratory syndrome coronavirus 2, Vero C1008, 48 h; remark: listed apart in the source
Zika virus = assay: Antiviral activity against Zika virus infected in African green monkey Vero cells assessed as reduction in virus induced cell death; format: functional, organism-based
C8166 = assay: Cytotoxicity against human C8166 cells assessed as reduction in cell viability incubated for 3 days by MTT assay; format: functional; conditions: C8166, 72 h, time 3 day
[12] = system: Human immunodeficiency virus 1; assay: Antiviral activity against HIV-1 IIIB infected in human C8166 cells assessed as reduction in viral replication; format: functional, organism-based; conditions: Human immunodeficiency virus 1, IIIB
[13] = Inhibition of N-terminal SARS-CoV-2 Main protease using ESATLQSGLRKAK-QXL-NH2 as substrate incubated for 60 mins by FRET assay; design: species or system Severe acute respiratory syndrome coronavirus 2
[14] = system: Vesicular stomatitis virus; assay: Antiviral activity against Vesicular stomatitis virus; format: functional, organism-based
[15] = system: Respiratory syncytial virus; assay: Antiviral activity against Respiratory syncytial virus; format: functional, organism-based; conditions: human respiratory syncytial virus
[16] = system: Respiratory syncytial virus; assay: Antiviral activity against RSV-A2 infected in human HEp-2 cells incubated for 4 days by Cell Titer Glo assay; format: functional, organism-based; conditions: A2, HEp-2, 96 h
SARS-CoV-2 [17] = format: functional, organism-based; conditions: Severe acute respiratory syndrome coronavirus 2, Wuhan-Hu-1, Vero C1008; remark: listed apart in the source
[18] = Toxicity in African green monkey Vero cells assessed as reduction in cell viability incubated for 3 days by MTT assay; format: cell-based; conditions: chlorocebus sabaeus, time 3 day, read-out: TC50
Human alphaherpesvirus 2 = assay: Antiviral activity against HSV-2 infected in African green monkey Vero cells assessed as reduction in virus-induced cytopathic effect incubated for 3 days by MTT assay; format: functional, organism-based; conditions: Human alphaherpesvirus 2, Vero, 72 h
Potato virus Y = assay: Antiviral activity against Potato Virus Y; format: functional, organism-based
[19] = system: Human immunodeficiency virus 1; assay: Antiviral activity against HIV-1 infected in human MT4 cells assessed as reduction in viral replication; format: functional, organism-based; conditions: Human immunodeficiency virus 1, MT4
Influenza A virus = assay: Antiviral activity against Influenza virus […] (A/California/07/2009 pdm09) infected in human Calu-3 cells assessed as viral RNA measured after 3 days by RT-PCR assay; format: functional, organism-based; conditions: Calu-3, 72 h
[20] = molecular target: T1, Human immunodeficiency virus type 1 integrase; assay: Inhibition of HIV-1 integrase
[21] = Inhibition of Influenza A virus A/California/04/2009 (H1N1) domain of PA endonuclease expressed in Escherichia coli BL21 (DE3) cells
[22] = Cytotoxicity against African green monkey Vero E6 cells assessed as reduction in cell viability measured for 3 days by CCK-8 assay; format: toxicity, cell-based; conditions: chlorocebus sabaeus, Vero E6 cells (Vero C1008); time 3 day
Human respirovirus 1 = assay: Antiviral activity against Human parainfluenza virus 1 infected in Vero cells assessed as reduction in viral replication at 10 ug/ml relative to control; format: functional; design: scale not given: the % may be the effect or the level left; conditions: dose 10 µg/ml

T1 sequence (Q7ZJM1 whole entry): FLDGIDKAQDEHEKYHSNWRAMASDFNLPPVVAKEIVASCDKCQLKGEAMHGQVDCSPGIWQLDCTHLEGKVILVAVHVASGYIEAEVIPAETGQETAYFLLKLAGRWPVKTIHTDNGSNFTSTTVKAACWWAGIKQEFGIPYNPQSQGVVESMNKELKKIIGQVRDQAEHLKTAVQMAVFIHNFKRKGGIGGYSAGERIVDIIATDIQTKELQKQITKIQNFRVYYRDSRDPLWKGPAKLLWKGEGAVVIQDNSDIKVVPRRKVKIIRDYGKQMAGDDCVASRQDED

With `O=C(NCC1CCNCC1)c1c[nH]c2cc(-c3ccoc3)c(-c3ccoc3)cc12` the IC50 (SARS-CoV-2 [1]) was 3.8 µM.
`CCS(=O)(=O)N(c1ccc(C(=O)/C=C2/C(=O)Nc3ccccc32)cc1)S(=O)(=O)CC` showed an IC50 (SARS-CoV-2 [2]) of 3.42 µM.
Work on `NS(=O)(=O)c1ccc(NC(=S)N/N=C2\C(=O)Nc3ccc(Br)cc32)cc1` yielded an EC50 (Sindbis virus) of 3 µM.
With `COP(=O)(c1cc(C)cc(OCC#N)c1)c1c(C(N)=O)[nH]c2ccc(Cl)cc12` (configuration not stated) the EC50 [3] was 0.08 nM.
In the case of `Cc1cncc(C#Cc2c[nH]c3ncc(-c4ccc(C(=O)NC5CC5)cc4)cc23)c1`, the EC50 [4] is reported as 0.18 µM, the EC50 (SARS-CoV-2 [5]) is reported as 1.82 µM and the EC50 [6] is reported as 1.8 µM.
For `CCOC(=O)c1c(C)n(C)c2ccc(OCCCOc3ccc(C(=O)/C=C/c4ccc(C)cc4)cc3)cc12`, the EC50 (Tobacco mosaic virus) was 107 µg/mL (≈ 210 µM).
Compound `NS(=O)(=O)c1ccc(NC(=S)N/N=C2\C(=O)Nc3ccc(OC(F)(F)F)cc32)cc1` has an EC50 (Sindbis virus) of 2 µM.
Work on `O=C1C2Cc3ccccc3N2[C@@H](c2ccc(O)c(O)c2)N1Nc1ccc([N+](=O)[O-])cc1` (some centres not stated) yielded an IC50 [7] of 8.52 µM and a CC50 at 72 h [8] greater than 100 µM.
`CC1=NCCc2c1[nH]c1ccccc21` gave an IC50 [9] of 0.023 µg/mL (≈ 0.125 µM).
For `O=C(O)/C(O)=C/C(=O)c1cn(S(=O)(=O)C(=O)c2ccc(F)cc2)c2ccc(Br)cc12`, the IC50 [10] was 0.2 µM.
Compound `CN1C(=O)/C(=N\NC(=S)Nc2ccc(S(N)(=O)=O)cc2)c2cc(Br)ccc21` has an EC50 (Sindbis virus) greater than 2 µM.
`O=C(NCCc1ccc(N2CCOCC2)cc1)c1[nH]c2ccc(Cl)cc2c1CO` showed an IC50 (SARS-CoV-2 [11]) of 4.2 µM.
Work on `Cc1ccc(S(=O)(=O)n2cc(C(=O)/C=C3\OC(C)(C)OC3=O)c3cc(Br)ccc32)cc1` yielded an IC50 [10] of 5.7 µM.
For `O=C(NCCc1ccc(N2CCCC2)cc1)c1[nH]c2ccc(Cl)cc2c1CO`, the IC50 (SARS-CoV-2 [1]) was 3.42 µM.
With `O=C1C(=O)N(Cc2ccc3ccccc3c2)c2ccccc21` the IC50 (Zika virus) was 0.32 µM.
With `CCc1ccc(S(=O)(=O)n2cc(C(=O)CCc3nnc(-c4ccccc4)o3)c3ccc(C)cc32)cc1` the CC50 (C8166) was greater than 469 µM and the EC50 [12] was 4.62 µM.
With `CCCCCCCCCCCCCCCCCc1nnc(SCCO)n1/N=C/c1cn(Cc2ccccc2)c2ccccc12` the IC50 (SARS-CoV-2 [11]) was 87.6 µM and the IC50 [13] was 8.7 µM.
For `CCCCCCCCCCCCCCCCCc1nnc(SCC(O)CO)n1/N=C/c1cn(Cc2ccccc2)c2ccccc12` (configuration not stated), the IC50 (SARS-CoV-2 [11]) was 112 µM and the IC50 [13] was 8.93 µM.
With `COc1ccc([C@H]2N(Nc3ccccc3)C(=O)C3Cc4ccccc4N32)cc1O[Si](C)(C)C(C)(C)C` (mixture of isomers) the IC50 [7] was 10.7 µM and the CC50 at 72 h [8] was greater than 100 µM.
Work on `CN1C(=O)/C(=N\NC(=S)Nc2ccc(S(N)(=O)=O)cc2)c2cc(OC(F)(F)F)ccc21` yielded an EC50 (Sindbis virus) greater than 20 µM.
In the case of `Cc1ccc2c(c1)C(=O)C(=O)N2Cc1ccc2ccccc2c1`, the EC50 [14] is reported as 6.8 µM and the EC50 [15] is reported as 6.8 µM.
For `O=C1C(=O)N(Cc2cccc3ccccc23)c2ccc(Br)cc21`, the EC50 [16] was 6.8 µM and the EC50 (SARS-CoV-2 [17]) was 6.8 µM.
With `CN1C(=O)/C(=N\NC(=S)Nc2ccc(S(N)(=O)=O)cc2)c2cc(F)ccc21` the EC50 (Sindbis virus) was greater than 4 µM.
`O=C(NN1C(=O)CSC12CCCCC2)c1[nH]c2ccc(Cl)cc2c1-c1ccccc1` gave an EC50 (Sindbis virus) of 1.9 µM.
In the case of `CCc1ccc(S(=O)(=O)n2cc(C(=O)CN3CCOCC3)c3ccc(C)cc32)cc1`, the EC50 [12] is reported as 9.42 µM.
For `O=C(NCC1CCNCC1)c1cc2ccc(-c3ccoc3)cc2[nH]1`, the IC50 (Zika virus) was 0.37 µM.
`CS(=O)(=O)Oc1ccc(C(=O)/C=C2/C(=O)Nc3ccccc32)cc1` gave an IC50 (SARS-CoV-2 [2]) of 3.8 µM.
`CCOC(=O)c1c(CSc2ccccc2)n(C)c2cc(Br)c(O)c(CN(C)C)c12` [UMIFENOVIR] showed a CC50 at 72 h [18] of 32.3 µg/mL (≈ 67.7 µM) and an IC50 (Human alphaherpesvirus 2) of 4.77 µg/mL (≈ 9.99 µM).
`CCOc1ccc(C2=NN(C(N)=S)C(C3CN(Cc4ccc(C(F)(F)F)cc4)c4ccccc43)C2)cc1F` (configuration not stated) showed an EC50 (Potato virus Y) of 202 µg/mL (≈ 372 µM).
Compound `O=C1c2c(ccc(O)c2O)CN1Cc1ccc(O)cc1` has an EC50 [19] of roughly 4 µM, an EC50 (Influenza A virus) of roughly 4 µM and an IC50 [20] of 0.0075 µM. The IC50 [21] was 0.0075 µM.
For `O=C1C[C@@H]2OCC=C3CN4CC[C@]56c7ccccc7N1[C@H]5[C@H]2[C@H]3C[C@H]46.O=S(=O)(O)O`, the IC50 [9] was 11.85 µg/mL.
With `CC1=NCCc2c1[nH]c1cc(O)ccc21` [HARMALOL] the IC50 [9] was 0.02 µg/mL (≈ 0.0999 µM).
`O=C(Oc1cncc(Cl)c1)c1cccc2c1CCN2` showed a CC50 at 72 h [22] greater than 100 µM.
For `C#CCCn1ccc2c(C3=N[C@@H](C(C)C)CO3)cccc21`, the EC50 (Potato virus Y) was 256 µg/mL (≈ 913 µM).
For `COc1ccc2c3c([nH]c2c1)C(C)=NCC3` [HARMALINE], the IC50 [9] was 3.42 µg/mL (≈ 16 µM).
In the case of `COc1cccc2[nH]c(C(=O)N[C@@H](CC(C)C)C(=O)N[C@@H](C[C@@H]3CCNC3=O)C(=O)c3nc4ccccc4s3)cc12`, the CC50 at 72 h [22] is reported as greater than 100 µM.
For `CC1CCCC2(C1)SCCN2NC(=O)c1[nH]c2ccc(S(N)(=O)=O)cc2c1-c1ccccc1` (configuration not stated), the Activity (Human respirovirus 1) was 95.46%.
`COc1ccc([C@H]2N(Nc3ccc([N+](=O)[O-])cc3)C(=O)C3Cc4ccccc4N32)cc1O[Si](C)(C)C(C)(C)C` (mixture of isomers) gave an IC50 [7] of 9.89 µM and a CC50 at 72 h [8] greater than 100 µM.
